Assay results: US7214715B2, “Compounds to treat Alzheimer's disease” (Pharmacia & Upjohn, priority 2000, dated 2007)

Compound	melting point [°C]
CCCN(CCC)C(=O)c1cc(C(=O)N[C@@H](Cc2cc(F)cc(F)c2)[C@H](O)CNCc2cccc(OC)c2)cc(-c2ccccc2)c1.Cl	230 to 233
CCCN(CCC)C(=O)c1cc(C(=O)N[C@@H](Cc2ccccc2)[C@H](O)CNCc2cccc(OC)c2)cc(-c2ccsc2)c1.Cl	199 to 201
CCCN(CCC)C(=O)c1cc(C(=O)N[C@@H](Cc2ccccc2)[C@H](O)CNCc2cccc(OC)c2)cc(-c2ccccc2)c1.Cl	214 to 219
CCCN(CCC)C(=O)c1cc(C(=O)N[C@@H](Cc2ccccc2)[C@H](O)CNCc2cccc(OC)c2)cc(-c2ccc(OC)cc2)c1.Cl	205 to 209
